Experiments:
[1] = tested on: reconstituted epidermis; experiment: Cutaneous irritant potential on reconstituted epidermis; type: cell-based; conditions: Rh-C5 concentration 30%, Triton 4%
From the text: The evaluation of cutaneous irritant potential on reconstituted epidermis is an alternative to animal experimentation. The principle is based on the evaluation of the irritant potential of the product tested by: • the study of cytotoxicity by quantification of the release of lactate dehydrogenase (LDH) and by reduction of MTT to […], • the study of inflammation markers by quantification of the release of interleukins and IL8.

[2] = tested on: keratinocytes; experiment: Toxicity test: viability of keratinocytes; type: cell-based; conditions: for % viability: compared to control 100%
From the text: (§1) MTT [3-(4,5-[…])-2,5-diphenyl tetrazolium bromide] Reduction Technique (Sold by Sigma).
(§2) This technique corresponds to a colorimetric test allowing quantification of living, metabolically active cells in a non-radioactive manner. MTT is a cationic molecule which is bound to the membranes of mitochondria in a potential-dependant fashion. On the level of the mitochondria, MTT will be reduced to formazan blue by mitochondrial dehydrogenase. The living cells are thus colored blue, in contrast with the dead cells which remain transparent. The measure of viability is then carried out by measurement of the optical density using an automatic reader.
XTT Tetrazolium Salt Reduction Technique.
This is a technique allowing quantification of cellular proliferation and of the number of living (metabolically active) cells, without the incorporation of radioactive isotopes. XTT, yellow in color, is a cationic molecule which is bound to the membranes of mitochondria in a potential-dependant fashion, as does MTT.
On the level of the mitochondria, XTT will be reduced to formazan (orange) by mitochondrial tetrazolium reductase. […] Indeed, the reduction product is soluble within the cell. The method is thus faster. Living cells, in the absence and presence of a treatment become colored, in contrast with dead cells which remain colorless. The level of formazan product is detected with the spectrophotometer at a wavelength of 450 nm and is directly proportional to the number of metabolically active cells.
Keratinocytes were isolated and placed in culture from human skin biopsies arising from anonymous donors following a plastic surgery procedure. Measurements of optical density (absorbance) of the 4 wells treated with the same product concentration were averaged. This average was compared with the average of the measurements obtained for the 4 control wells (Student's t-test comparison of means significant difference at 95% if p<0.05 and 99% if p<0.01).
The viabilities of the treated cells are expressed as a percentage compared to the control (untreated cells) of 100% (OD treated/OD control×100).

[3] = tested on: HSkMEC; experiment: Adhesion of lymphocytes on non-activated endothelial cells HSkMEC; type: cell-based; conditions: for adhesion between lymphocytes and endothelial cells, Medium: HSkMEC, Medium (no TNF), control = 1.000
Protocol: (§3) The influence of alkyl-rhamnosides on adhesion between lymphocytes and […] endothelial cells, in particular the line of endothelial cells arising from the skin (HSkMEC), was evaluated. These cells were placed in the presence of a strong activator, TNF-α.
(§4) Adhesion is carried out in vitro under static conditions. The endothelial cells were cultured in wells in order to obtain a monolayer. The cells were pretreated for 5 hours in the presence or absence of alkyl-rhamnosides. As dodecyl-rhamnoside required a content of 0.1% by volume to be soluble in the culture media, a control containing 0.1% glycerol was also analyzed.
(§5) The suspension of labeled lymphocytes was at a concentration making it possible to obtain a ratio of 5 lymphocytes per endothelial cell. Adhesion was carried out for 30 minutes at ambient temperature. The label binds irreversibly to the lipids of the plasma membrane of the cells without affecting the biological properties of the membrane or cellular viability.
(§6) The adhesion of the lymphocytes on the endothelial cells was quantified by flow cytometry.

[4] = tested on: HSkMEC activated with TNF-α; experiment: Adhesion between lymphocytes and TNF-α activated endothelial cells (HSkMEC); type: cell-based; conditions: for Control/TNF ratio / adhesion between lymphocytes and endothelial cells, TNF: HSkMEC; for adhesion between lymphocytes and endothelial cells, TNF: control in medium = 1.000
Protocol: as §3, §4, §5, §6
The results of adhesion between lymphocytes and activated endothelial cells, summarized in Table 5 below, arise from groups of three adhesion tests.

[5] = tested on: endothelial cells (appendix, brain microvascular, mesenteric lymphatic ganglia, peripheral lymphatic ganglia, skin microvascular); experiment: Cytotoxicity test (MTT) on endothelial cell lines; type: cell-based
From the text: as §1, §2
Endothelial cells were placed in culture, immortalized and stabilized in their phenotype. The cell lines studied were appendix endothelial cells, brain microvascular endothelial cells, mesenteric lymphatic ganglia endothelial cells, peripheral lymphatic ganglia endothelial cells and skin microvascular endothelial cells.
The cytotoxicity test was carried out by means of a biochemical test on the transformation of a tetrazolium salt, MTT. […] Viability is indeed always greater than 85%, and this is true for all of the cells lines studied.

[6] = tested on: PGE2 released by the NHK stimulated by PMA; experiment: Assay of the PGE2 released by the NHK stimulated by PMA; type: cell-based, human; conditions: for Percentage of inhibition of the release of PGE2: NHK + PMA 1 ng/ml, 24 hours
Protocol: Assay of the PGE2 released by the NHK stimulated by PMA.
Alkyl-rhamnosides were evaluated as an inhibitor of the release of PGE2 in cellular supernatants. These products were placed in the presence of the NHK at the same time as the PMA at 1 ng/ml. Each condition tested was evaluated for stimulation on 4 wells of NHK.
The results summarized in Table 5 below represent the mean PGE2 concentration values (pg/ml), after 24 hours of treatment, given in each of the cellular supernatants, stimulated or not, and reported in a quantity of cells expressed in μg.

[7] = tested on: HPLNEC.B3; experiment: Adhesion of lymphocytes on non-activated endothelial cells HPLNEC.B3; type: cell-based
Protocol: as §4, §5, §6

[8] = tested on: HMLNEC; experiment: Adhesion of lymphocytes on non-activated endothelial cells HMLNEC; type: cell-based
Protocol: as §4, §5, §6

[9] = tested on: HAPEC; experiment: Adhesion of lymphocytes on non-activated endothelial cells HAPEC; type: cell-based
Protocol: as §4, §5, §6

[10] = tested on: HBrMEC; experiment: Adhesion of lymphocytes on non-activated endothelial cells HBrMEC; type: cell-based
Protocol: as §4, §5, §6

[11] = tested on: proliferation of lymphocytes in auricular lymphatic ganglia; conditions: in vivo
From the text: (§7) This test determines the sensitizing capacity of the test substance by measuring the proliferation of lymphocytes in auricular lymphatic ganglia. The proliferation of lymphocytes will be measured by determining the incorporation of tritiated methyl thymidine.

[12] = tested on: proliferation of lymphocytes in auricular lymphatic ganglia; experiment: Sensitizing capacity by the LLNA method (local lymph node assay)
From the text: as §7

Compound: Triton [reference compound]
- IL1α ratio ([1]; 24 hours of application): 36.0
- IL8 ratio ([1]; 24 hours of application): 3.7
- LDH ratio ([1]; 24 hours of application): 124.7
- MTT % viability ([1]; 24 hours of application): 3.0%
- IL1α ratio ([1]; 72 hours of application): 7.2
- IL8 ratio ([1]; 72 hours of application): 0.9
- LDH ratio ([1]; 72 hours of application): 77.3
- MTT % viability ([1]; 72 hours of application): 1.5%
- Classification (cutaneous irritant potential) [1]: irritant

Compound: C[C@H](O)[C@H](O)[C@@H](O)[C@@H](O)C=O [Rhamnose, rhamnose, reference compound]
- % viability ([2]; 0.001 mg/ml): 95%
- % viability ([2]; 0.01 mg/ml): 100%
- % viability ([2]; 0.1 mg/ml): 98%
- % viability ([2]; 1 mg/ml): 104%
- cytotoxicity ([2]; even for the highest concentrations): does not exhibit cytotoxicity
- adhesion between lymphocytes and endothelial cells, Medium [3]: 1.630
- Control/TNF ratio [4]: 1.5
- adhesion between lymphocytes and endothelial cells, TNF [4]: 2.450

Compound: CCCCCOC1O[C@@H](C)[C@H](O)[C@@H](O)[C@H]1O (stereo partly shown) [Rh-C5, pentyl-rhamnoside]
- concentrations at which cytotoxicity is exhibited [2]: greater than 2 mg/ml
- % viability ([2]; 0.1 mg/ml): 94%
- % viability ([2]; 1 mg/ml): 74%
- % viability ([2]; 2 mg/ml): 53%
- % viability ([2]; 5 mg/ml): 40%
- Viability ([5]; all of the cells lines studied): greater than 85%
- toxicity ([5]; endothelial cell lines): no toxicity
- Percentage of inhibition of the release of PGE2 ([6]; 0.02 mg/ml): 29%
- Percentage of inhibition of the release of PGE2 ([6]; 0.05 mg/ml): 61%
- Percentage of inhibition of the release of PGE2 ([6]; 0.1 mg/ml): 64%
- Percentage of inhibition of the release of PGE2 ([6]; 1 mg/ml): 89%
- inhibiting effect on the adhesion of lymphocytes compared to rhamnose ([3]; 1.1 mM, non-activated HSkMEC): 37.3%
- adhesion between lymphocytes and endothelial cells, Medium [3]: 1.900
- increase in adhesion of lymphocytes ([7]; 1.1 mM): 37.9%
- increase in adhesion of lymphocytes compared to rhamnose ([8]; 1.1 mM): 96.7%
- effect on adhesion of lymphocytes ([9]; 1.1 mM): no effect or a very slight effect
- effect on adhesion of lymphocytes ([10]; 1.1 mM): no effect or a very slight effect
- Control/TNF ratio [4]: 1.6
- adhesion between lymphocytes and endothelial cells, TNF [4]: 3.100
- Conclusion (sensitizing capacity) [11]: Not sensitizing
- sensitizing capacity [11]: not sensitizing
- DPM/Ganglion ([12]; Concentration 1: 3%): 1240.2 DPM/Ganglion
- RATIO ([12]; Concentration 1: 3%): 0.7
- DPM/Ganglion ([12]; Concentration 2: 15%): 1041.1 DPM/Ganglion
- RATIO ([12]; Concentration 2: 15%): 0.6
- DPM/Ganglion ([12]; Concentration 3: 30%): 797.3 DPM/Ganglion
- RATIO ([12]; Concentration 3: 30%): 0.5

Compound: CCCCCCCCCCCOC1O[C@@H](C)[C@H](O)[C@@H](O)[C@H]1O (stereo partly shown) [Rh-C11, undecyl-rhamnoside]
- % viability ([2]; 10 μg/ml): 81%
- % viability ([2]; 100 μg/ml): 17%
- % viability ([2]; 250 μg/ml): 11%
- % viability ([2]; 500 μg/ml): 30%
- Percentage of inhibition of the release of PGE2 ([6]; 0.01 mg/ml): 28%
- Percentage of inhibition of the release of PGE2 ([6]; 0.02 mg/ml): 28%
- activity (inhibition of PGE2 release) ([6]; in the range of 20 μg/ml): activity comparable to pentyl-rhamnoside

Compound: CCCCCCCCCCCCOC1O[C@@H](C)[C@H](O)[C@@H](O)[C@H]1O (stereo partly shown) [dodecyl-rhamnoside]
- decrease of the adhesion of lymphocytes ([3]; 1.5 mM, non-activated HSkMEC): 34.2%
- adhesion between lymphocytes and endothelial cells, Medium [3]: 3.200
- effect on adhesion of lymphocytes ([7]; 1.5 mM): no effect
- effect on adhesion of lymphocytes ([8]; 1.5 mM): no effect
- increase in adhesion of lymphocytes ([9]; 1.5 mM): 44.1%
- effect on adhesion of lymphocytes ([10]; 1.5 mM): no effect
- inhibition of adhesion ([4]; 1.5 μM, endothelial cells): 63%
- Control/TNF ratio [4]: 0.59
- adhesion between lymphocytes and endothelial cells, TNF [4]: 1.900

Compound: octadecyl-rhamnose [Rh-C18]
- Percentage of inhibition of the release of PGE2 ([6]; 0.02 mg/ml): 2%
